Target: human RAF1 (Homo sapiens, UniProt P04049)
Test: Protein kinase assay (33P-ATP filter binding), human RAF1, 10-dose IC50
Type: biochemical
Conditions: MEK1 (K97R) substrate 3 micromolar, ATP 10 micromolar, read-out: RAF-1 IC50
Experimental: In brief, for each reaction, kinase and substrate were mixed in a buffer containing 20 mM HEPES (pH 7.5), 10 mM MgCl2, 1 mM EGTA, 0.02% Brij35, 0.02 mg/mL BSA, 0.1 mM Na3VO4, 2 mM DTT, and […]. All compounds were solubilized in DMSO. Compounds were then added to each reaction mixture via acoustic dispense using an ECHO 550 nanoliter dispenser. For human RAF1 testing, human MEK1 (K97R) was used as a substrate at a concentration of 3 micromolar, with a final ATP concentration of 10 micromolar. […] Reactions were carried out at room temperature for 2 hr and spotted onto P81 ion exchange cellulose chromatography paper (Reaction Biology). […] The percent remaining kinase activity relative to a vehicle-containing (DMSO) kinase reaction was calculated for each kinase/inhibitor pair. IC50 values were calculated using Prism 5 (GraphPad).

Chain of human RAF1 (P04049 whole entry): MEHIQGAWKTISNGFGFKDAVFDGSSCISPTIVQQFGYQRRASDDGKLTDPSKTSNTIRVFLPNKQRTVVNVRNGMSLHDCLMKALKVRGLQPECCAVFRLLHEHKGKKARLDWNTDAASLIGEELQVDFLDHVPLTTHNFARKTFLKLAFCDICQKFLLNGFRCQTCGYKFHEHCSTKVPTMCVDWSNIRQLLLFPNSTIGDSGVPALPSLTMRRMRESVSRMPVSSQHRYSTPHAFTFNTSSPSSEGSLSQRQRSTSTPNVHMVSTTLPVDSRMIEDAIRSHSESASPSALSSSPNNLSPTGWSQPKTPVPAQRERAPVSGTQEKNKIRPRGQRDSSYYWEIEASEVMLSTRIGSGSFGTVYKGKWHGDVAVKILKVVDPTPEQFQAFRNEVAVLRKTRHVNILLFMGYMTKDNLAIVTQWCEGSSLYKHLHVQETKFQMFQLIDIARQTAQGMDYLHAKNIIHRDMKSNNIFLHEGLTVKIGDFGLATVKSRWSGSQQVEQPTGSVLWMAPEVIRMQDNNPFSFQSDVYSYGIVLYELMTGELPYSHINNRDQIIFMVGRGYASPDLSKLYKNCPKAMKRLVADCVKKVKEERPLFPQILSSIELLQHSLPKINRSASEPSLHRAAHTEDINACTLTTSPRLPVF

IC50 [nM]	Structure (SMILES)
< 10	Cc1ccc(NC(=O)N2CCC(CC(F)(F)F)C2)cc1-c1cnc(OC2CCOCC2)c(N2CCOCC2)c1 (centres unmarked) [Example 123, N-[4-methyl-3-[5-(morpholin-4-yl)-6-(oxan-4-yloxy)pyridin-3-yl]phenyl]-3-(2,2,2-trifluoroethyl)pyrrolidine-1-carboxamide]
< 10	Cc1ccc(NC(=O)N2CC[C@@H](OC(F)(F)F)C2)cc1-c1cc(OCCO)nc(N2CCOCC2)c1 (single isomer, unassigned) [Example 124]
< 10	Cc1ccc(NC(=O)N2CC[C@H](OC(C)C)C2)cc1-c1cc(OCCO)nc(N2CCOCC2)c1 [Example 138, (3S)-N-[3-[2-(2-hydroxyethoxy)-6-(morpholin-4-yl)pyridin-4-yl]-4-methylphenyl]-3-isopropoxypyrrolidine-1-carboxamide]
< 10	Cc1ccc(NC(=O)N2CC[C@@H](CC(F)(F)F)C2)cc1-c1cc(OCC2(O)COC2)nc(N2CCOCC2)c1 [Example 224, (3S)-N-(3-[2-[(3-hydroxyoxetan-3-yl)methoxy]-6-(morpholin-4-yl)pyridin-4-yl]-4-methylphenyl)-3-(2,2,2-trifluoroethyl)pyrrolidine-1-carboxamide]
< 10	Cc1ncc(NC(=O)N2CC[C@H](C(F)(F)F)C2)cc1-c1cnc(OCCO)c(N2CCOCC2)c1 (single isomer, unassigned) [Example 17]
< 10	Cc1cc(F)c(NC(=O)N2CC[C@H](CC(F)(F)F)C2)cc1-c1cc(OCCO)nc(N2CCOCC2)c1 (single isomer, unassigned) [Example 74]
< 10	Cc1ccc(NC(=O)N2CCC(CC(F)(F)F)C2)cc1-c1cc(O[C@@H]2CCOC2)nc(N2CCOCC2)c1 (stereo partly drawn) [Example 200, N-(4-methyl-3-(2-morpholino-6-(((R)-tetrahydrofuran-3-yl)oxy)pyridin-4-yl)phenyl)-3-(2,2,2-trifluoroethyl)pyrrolidine-1-carboxamide]
< 10	Cc1ccc(NC(=O)N2CC[C@@H](CC(F)(F)F)C2)cc1-c1cc(OC[C@@H](C)O)nc(N2CC3(COC3)C2)c1 [Example 229, (3S)-N-(3-[2-[(2R)-2-hydroxypropoxy]-6-[2-oxa-6-azaspiro[3.3]heptan-6-yl]pyridin-4-yl]-4-methylphenyl)-3-(2,2,2-trifluoroethyl)pyrrolidine-1-carboxamide]
< 10	Cc1ccc(NC(=O)N2CC[C@@H](CC(F)(F)F)C2)cc1-c1cc(O[C@H]2CC[C@@H](O)C2)nc(N2CCOCC2)c1 [Example 209, (3S)-N-[3-(2-[[(1S,3R)-3-hydroxycyclopentyl]oxy]-6-(morpholin-4-yl)pyridin-4-yl)-4-methylphenyl]-3-(2,2,2-trifluoroethyl)pyrrolidine-1-carboxamide]
< 10	Cc1cc(F)c(NC(=O)N2CCC3C2C3C(F)(F)F)cc1-c1cc(OCCO)nc(N2CCOCC2)c1 (single isomer, unassigned) [Example 68, N-[2-fluoro-5-[2-(2-hydroxyethoxy)-6-(morpholin-4-yl)pyridin-4-yl]-4-methylphenyl]-6-(trifluoromethyl)-2-azabicyclo[3.1.0]hexane-2-carboxamide]
10 to 100	Cc1cc(F)c(NC(=O)N2CC3C(C2)C3(F)F)cc1-c1cc(OCCO)nc(N2CCOCC2)c1 (centres unmarked) [Example 28, 6,6-difluoro-N-[2-fluoro-5-[2-(2-hydroxyethoxy)-6-(morpholin-4-yl)pyridin-4-yl]-4-mehtylphenyl]-3-azabicyclo[3.1.0]hexane-3-carboxamide]
< 10	Cc1cc(F)c(NC(=O)N2C[C@H]3C[C@@]3(C(F)(F)F)C2)cc1-c1cc(OCCO)nc(N2CCOCC2)c1 (single isomer, unassigned) [Example 51]
< 10	Cc1ccc(NC(=O)N2CC[C@H](OC(F)(F)F)C2)cc1-c1cc(OCC(C)O)nc(N2CCOCC2)c1 (stereo in doubt) [Example 152, (3S)-N-(3-[2-[(2R)-2-hydroxypropoxy]-6-(morpholin-4-yl)pyridin-4-yl]-4-methylphenyl)-3-(trifluoromethoxy)pyrrolidine-1-carboxamide]
< 10	Cc1ccc(NC(=O)N2CC=C(C(F)(F)F)C2)cc1-c1cc(O[C@H](C)[C@@H](C)O)nc(N2CCOCC2)c1 [Example 171, N-(3-(2-(((2R,3R)-3-hydroxybutan-2-yl)oxy)-6-morpholinopyridin-4-yl)-4-methylphenyl)-3-(trifluoromethyl)-2,5-dihydro-1H-pyrrole-1-carboxamide]
10 to 100	Cc1cc(F)c(NC(=O)N2CCC3C2C3C(F)(F)F)cc1-c1cc(OCCO)nc(N2CCOCC2)c1 (single isomer, unassigned) [Example 70, N-[2-fluoro-5-[2-(2-hydroxyethoxy)-6-(morpholin-4-yl)pyridin-4-yl]-4-methylphenyl]-6-(trifluoromethyl)-2-azabicyclo[3.1.0]hexane-2-carboxamide]
< 10	Cc1ccc(NC(=O)N2C[C@@H](OC(F)(F)F)CO2)cc1-c1cc(OCCO)nc(N2CCOCC2)c1 [Example 144, (4R)-N-[3-[2-(2-hydroxyethoxy)-6-(morpholin-4-yl)pyridin-4-yl]-4-methylphenyl]-4-(trifluoromethoxy)-1,2-oxazolidine-2-carboxamide]
< 10	Cc1ccc(NC(=O)N2CC[C@@H](CC(F)(F)F)C2)cc1-c1cc(OC2CCC(C)(O)CC2)nc(N2CCOCC2)c1 (stereo partly drawn) [Example 211, (3S)-N-(3-[2-[(4-hydroxy-4-methylcyclohexyl)oxy]-6-(morpholin-4-yl)pyridin-4-yl]-4-methylphenyl)-3-(2,2,2-trifluoroethyl)pyrrolidine-1-carboxamide (cis)]
< 10	C/C(C#N)=C1/CCN(C(=O)Nc2cc(-c3cc(OCCO)nc(N4CCOCC4)c3)c(C)cc2F)C1 [Example 98, (3E)-3-(1-cyanoethylidene)-N-[2-fluoro-5-[2-(2-hydroxyethoxy)-6-(morpholin-4-yl)pyridin-4-yl]-4-methylphenyl]pyrrolidine-1-carboxamide]
10 to 100	Cc1cc(F)c(NC(=O)N2CC(C(F)F)C2)cc1-c1cc(OCCO)nc(N2CCOCC2)c1 [Example 21, 3-(difluoromethyl)-N-[2-fluoro-5-[2-(2-hydroxyethoxy)-6-(morpholin-4-yl)pyridin-4-yl]-4-methylphenyl]azetidine-1-carboxamide]
< 10	Cc1cc(F)c(NC(=O)N2CC=C(C(F)(F)F)C2)cc1-c1cc(OCCO)nc(N2CCOCC2)c1 [Example 72, N-[2-fluoro-5-[2-(2-hydroxyethoxy)-6-(morpholin-4-yl)pyriidn-4-yl]-4-methylphenyl]-3-(trifluoromethyl)-2,5-dihydropyrrole-1-carboxamide]
< 10	Cc1ccc(NC(=O)N2CCC(CC(F)(F)F)C2)cc1-c1cc(OCC(C)CO)nc(N2CCOCC2)c1 (centres unmarked) [Example 199, N-(3-(2-(3-hydroxy-2-methylpropoxy)-6-morpholinopyridin-4-yl)-4-methylphenyl)-3-(2,2,2-trifluoroethyl)pyrrolidine-1-carboxamide]
< 10	Cc1cc(F)c(NC(=O)N2CCC3(CCC3(F)F)C2)cc1-c1cc(OCCO)nc(N2CCOCC2)c1 (single isomer, unassigned) [Example 90, 1,1-difluoro-N-[2-fluoro-5-[2-(2-hydroxyethoxy)-6-(morpholin-4-yl)pyridin-4-yl]-4-methylphenyl]-6-azaspiro[3.4]octane-6-carboxamide]
< 10	Cc1cc(F)c(NC(=O)N2CC[C@@H](CC(F)(F)F)C2)cc1-c1cc(OCCO)nc(N2CCOCC2)c1 (single isomer, unassigned) [Example 75]
< 10	COC1(C(F)(F)F)CCCN(C(=O)Nc2cc(-c3cc(OCCO)nc(N4CCOCC4)c3)c(C)cc2F)C1 (centres unmarked) [Example 42, N-[2-fluoro-5-[2-(2-hydroxyethoxy)-6-(morpholin-4-yl)pyridin-4-yl]-4-methylphenyl]-3-methoxy-3-(trifluoromethyl)piperidine-1-carboxamide]
< 10	Cc1ncc(NC(=O)N2CC[C@@H](C(F)(F)F)C2)cc1-c1cnc(OCCO)c(N2CCOCC2)c1 (single isomer, unassigned) [Example 16]
< 10	Cc1ccc(NC(=O)N2C[C@@H]3[C@H](C2)[C@H]3C(F)(F)F)cc1-c1cc(OCCO)nc(N2CCOCC2)c1 [Example 176, (1R,5S,6r)-N-(3-(2-(2-hydroxyethoxy)-6-morpholinopyridin-4-yl)-4-methylphenyl)-6-(trifluoromethyl)-3-azabicyclo[3.1.0]hexane-3-carboxamide]
< 10	Cc1cc(F)c(NC(=O)N2CCS[C@@H](C(F)(F)F)C2)cc1-c1cc(OCCO)nc(N2CCOCC2)c1 [Example 169, (R)-N-(2-fluoro-5-(2-(2-hydroxyethoxy)-6-morpholinopyridin-4-yl)-4-methylphenyl)-2-(trifluoromethyl)thiomorpholine-4-carboxamide]
< 10	Cc1ccc(NC(=O)N2CC[C@@H](CC(F)(F)F)C2)cc1-c1cc(O[C@H]2CCC(F)(F)C2)nc(N2CCOCC2)c1 [Example 220, (3S)-N-[3-(2-[[(1S)-3,3-difluorocyclopentyl]oxy]-6-(morpholin-4-yl)pyridin-4-yl)-4-methylphenyl]-3-(2,2,2-trifluoroethyl)pyrrolidine-1-carboxamide]

Structure (SMILES)	IC50 [nM]
Cc1ccc(NC(=O)N2CC[C@@H](CC(F)(F)F)C2)cc1-c1cc(OC2CC(C)(O)C2)nc(N2CCOCC2)c1 (stereo partly drawn) [Example 217, (3S)-N-[3-[2-(3-hydroxy-3-methylcyclobutoxy)-6-(morpholin-4-yl)pyridin-4-yl]-4-methylphenyl]-3-(2,2,2-trifluoroethyl)pyrrolidine-1-carboxamide]	< 10

— patent US20230081390A1, “INHIBITORS OF RAF KINASES” (Kinnate Biopharma Inc., priority 2019, published 2023)
